“And” between values parts separate entries of the source, which are not always exact repeats. Equal values may be shown once. Inconclusive results and toxic doses are left out.
Tested on: CD2F1 mice, L1210 leukemia sc, survival T/C
Experiment: NCI In Vivo Anticancer Drug Screen. Data for tumor model L1210 Leukemia (subcutaneous) in CD2F1 (CDF1) mice
Settings: endpoint: median survival time, higher = longer survival
Summary of the method: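 Mice with transplanted tumor dosed; survival/tumor size read; T/C vs vehicle controls.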

O=NN(CCCl)C(=O)NCCCl
T/C (dose: 0.25 mg/kg/injection, schedule: Q01DX009 (ip), vehicle: saline + alcohol): 108 % of control
T/C (dose: 0.25 mg/kg/injection, schedule: Q01DX009 (sc), vehicle: saline + alcohol): 100 % of control and 107 % of control
T/C (dose: 0.5 mg/kg/injection, schedule: Q01DX009 (ip), vehicle: saline + alcohol): 121 % of control
T/C (dose: 0.5 mg/kg/injection, schedule: Q01DX009 (sc), vehicle: saline + alcohol): 112 % of control and 98 % of control
T/C (dose: 0.88 mg/kg/injection, schedule: Q01DX009 (ip), vehicle: saline + alcohol): 121 % of control
T/C (dose: 0.9 mg/kg/injection, schedule: Q01DX009 (ip), vehicle: saline + alcohol): 112 % of control
T/C (dose: 1.0 mg/kg/injection, schedule: Q01DX009 (sc), vehicle: saline + alcohol): 108 % of control and 124 % of control
T/C (dose: 1.8 mg/kg/injection, schedule: Q01DX009 (ip), vehicle: saline + alcohol): 120 % of control
T/C (dose: 1.8 mg/kg/injection, schedule: Q01DX Z (sc), vehicle: saline): 243 % of control
T/C (dose: 2.0 mg/kg/injection, schedule: Q01DX009 (ip), vehicle: saline + alcohol): 159 % of control and 192 % of control
T/C (dose: 3.0 mg/kg/injection, schedule: Q01DX Z (sc), vehicle: saline): 512 % of control
T/C (dose: 4.0 mg/kg/injection, schedule: Q01DX009 (ip), vehicle: saline + alcohol): 187 % of control and 219 % of control
T/C (dose: 5.0 mg/kg/injection, schedule: Q01DX Z (sc), vehicle: saline): 300 % of control
T/C (dose: 5.0 mg/kg/injection, schedule: Q07DX Z (sc), vehicle: saline): 150 % of control
T/C (dose: 5.3 mg/kg/injection, schedule: Q01DX009 (sc), vehicle: saline + alcohol): 314 % of control
T/C (dose: 5.33 mg/kg/injection, schedule: Q01DX009 (ip), vehicle: saline + alcohol): 222 % of control
T/C (dose: 5.33 mg/kg/injection, schedule: Q01DX009 (sc), vehicle: saline + alcohol): 203 % of control
T/C (dose: 7.0 mg/kg/injection, schedule: Q01DX009 (ip), vehicle: saline + alcohol): 167 % of control and 184 % of control
T/C (dose: 8.0 mg/kg/injection, schedule: Q01DX009 (ip), vehicle: saline + alcohol): 179 % of control and 243 % of control
T/C (dose: 8.4 mg/kg/injection, schedule: Q01DX001 (sc), vehicle: saline): 212 % of control
T/C (dose: 8.4 mg/kg/injection, schedule: Q01DX017 (ip), vehicle: none): 333 % of control
T/C (dose: 8.4 mg/kg/injection, schedule: Q01DX017 (sc), vehicle: saline): 316 % of control
T/C (dose: 8.4 mg/kg/injection, schedule: Q01DX Z (sc), vehicle: saline): 256 % of control
T/C (dose: 8.4 mg/kg/injection, schedule: Q07DX Z (sc), vehicle: saline): 293 % of control
T/C (dose: 12.0 mg/kg/injection, schedule: Q01DX009 (sc), vehicle: saline + alcohol): 151 % of control and 205 % of control
T/C (dose: 14.0 mg/kg/injection, schedule: Q01DX001 (sc), vehicle: saline): 300 % of control
T/C (dose: 14.0 mg/kg/injection, schedule: Q01DX009 (ip), vehicle: saline + alcohol): 116 % of control
T/C (dose: 14.0 mg/kg/injection, schedule: Q01DX017 (ip), vehicle: none): 588 % of control
T/C (dose: 14.0 mg/kg/injection, schedule: Q01DX017 (sc), vehicle: saline): 388 % of control
T/C (dose: 14.0 mg/kg/injection, schedule: Q01DX Z (sc), vehicle: saline): 212 % of control
T/C (dose: 14.0 mg/kg/injection, schedule: Q07DX Z (sc), vehicle: saline): 600 % of control
T/C (dose: 16.0 mg/kg/injection, schedule: Q01DX009 (sc), vehicle: saline + alcohol): 160 % of control
T/C (dose: 23.0 mg/kg/injection, schedule: Q01DX001 (sc), vehicle: saline): 343 % of control
T/C (dose: 23.0 mg/kg/injection, schedule: Q01DX017 (ip), vehicle: none): 731 % of control
T/C (dose: 23.0 mg/kg/injection, schedule: Q01DX017 (sc), vehicle: saline): 733 % of control
T/C (dose: 23.0 mg/kg/injection, schedule: Q07DX Z (sc), vehicle: saline): 331 % of control
T/C (dose: 32.0 mg/kg/injection, schedule: Q01DX009 (ip), vehicle: saline + alcohol): 98 % of control
T/C (dose: 32.0 mg/kg/injection, schedule: Q01DX009 (sc), vehicle: saline + alcohol): 102 % of control and 124 % of control
T/C (dose: 39.0 mg/kg/injection, schedule: Q01DX001 (sc), vehicle: saline): 243 % of control
T/C (dose: 39.0 mg/kg/injection, schedule: Q01DX017 (ip), vehicle: none): 511 % of control
T/C (dose: 39.0 mg/kg/injection, schedule: Q01DX017 (sc), vehicle: saline): 500 % of control
T/C (dose: 39.0 mg/kg/injection, schedule: Q07DX Z (sc), vehicle: saline): 200 % of control
T/C (dose: 65.0 mg/kg/injection, schedule: Q01DX001 (sc), vehicle: saline): 162 % of control

N[C@H](C(=O)O)[C@H]1ON=C(Cl)[C@@H]1O
T/C (dose: 16.0 mg/kg/injection, schedule: Q01DX009 (sc), vehicle: saline): 114 % of control
T/C (dose: 64.0 mg/kg/injection, schedule: Q01DX009 (sc), vehicle: saline): 152 % of control
T/C (dose: 1024.0 mg/kg/injection, schedule: Q01DX009 (sc), vehicle: saline): 120 % of control

— PubChem BioAssay AID258 (DTP/NCI, 2004)
